The values below come from patent US20220339150A1, “ENDOCANNABINOID SYSTEM-TARGETING PRODRUGS AND THERAPEUTIC USES THEREOF” (priority 2021, published 2022).

Structures are written as SMILES. ≈ marks a conversion by molar mass, not a printed value. Entries after “also recorded” stand apart in the source; their conditions may differ. Where two headings read alike, the source gives them in different places.

Data set [1] is described as follows: Metabolic stability in human liver microsomes. The data set is classed as in vitro ADME. The note with it: for half-life at 15 µg/mL: pH 7.4, Table 3. Here is the method: The prodrugs were incubated with the human liver microsomes at 37° C. as an indication of the susceptibility of prodrugs to undergo bioconversion in the liver. The reactions were initiated by adding 1.5 μL of the prodrug stock solution (10 mg/mL in DMSO) to a preheated solution consisting of 748.5 μL potassium phosphate buffer solution (20 mM, pH 7.4, ionic strength 0.5), 200 μL NADPH, and 50 μLhuman liver microsomes (mixed gender, 0.5 ml at 20 mg/mL). The solutions were stirred at a constant temperature of 37° C. At appropriate intervals, 50 μLof samples were mixed with 100 μL of ice-cold MeOH. After immediate mixing and centrifugation (5 min at 14.000 rpm), the resulting clear supernatant was analyzed for the remaining prodrug by HPLC.
On the technique in general: Liver microsomes are vesicles of endoplasmic reticulum, rich in cytochrome P450 enzymes.

Data set [2] is described as follows: Aqueous solubility of CBD and solubility in various solvents. The format is physicochemical. The procedure:
CBD was dissolved in 50 mM phosphate buffer, pH 6.8, containing 10% (v/v) EtOH. Suspensions were centrifuged for 3 min at 14000 rpm. Solubilities are between 15-110 μg/ml. Some floating particles can be seen which, once dissolved, cause variation in the result. When the suspension was filtered (Millex 0.45 μm) no detectable (HPLC) CBD was found.
CBD solubility in various solvents when ca. 1 mg was dissolved in ca. 1 ml. Solutions/suspensions were centrifuged, and 100 μl of the sample was mixed with 100 μl MeOH:H2O (1:1).
The solubility of CBD in various solvents is shown below: • 1. 50% EtOH:50% H2O=ca. 1 mg/ml • 2. 15% HP-beta-CD:85% H2O=0.7 mg/ml • 3. 5% HP-beta-CD:0.5% HPMC:84.5% H2O=0.16 mg/ml • 4. 4% BSA:95% H2O=0.07 mg/ml • 5. 90% Propylene glycol:10% H2O=0.87 mg/ml • 6. 30% Solutol® HS 15:10% EtOH:60% H2O=0.96 mg/ml

The subject of data set [3] is reconstructed human epidermis cells. Nature of the data set: In vitro skin permeability (SkinEthic Episkin reconstructed human epidermis). The format is in vitro ADME. The note with it: for Skin permeation, applied compound (parent or intact prodrug): receiver 15% HP-beta-CD pH 7.4. Here is the method: The in vitro permeability studies were carried out in commercial reconstructed human epidermis cells (SkinEthic™ Episkin Reconstructed human epidermis). This model is composed of TR146 cells (derived from a squamous cell carcinoma of the buccal mucosa) cultivated on an inert polycarbonate filter at the air-liquid interface in a chemically defined medium. This model forms an epithelial tissue devoid of stratum corneum, resembling histologically to the mucosa of the oral cavity.
Upon receiving the cells, each insert (0.5 cm^2 or 0.33 cm^2) was placed in a plate containing 800 μL fresh medium at room temperature. The culture dishes were placed in the incubator at 37° C., 5% CO2, and saturated humidity overnight. Next day, the inserts were placed in a plate containing 800 μL 15% HP-β-cyclodextrin in H2O. CBD and CBG, and prodrugs CBDp27 and CBGp1 were dissolved in two different vehicles, 1:1:1 prop gly:water:EtOH/6% Brij 98, and 100% mineral oil. The receiver solution was 15% HP-beta-CD in phosphate buffer (pH 7.4). 400 μL the prodrugs were applied as suspensions (ca. 2 mg/ml). The plates were stirred gently at 37° C. At appropriate intervals, the receptor compartment was sampled (100 μL) and replenished with fresh […] solution each time. The samples were mixed with 100 μL of MeOH, and analyzed for drug (both the parent drug and prodrug) by HPLC-MS.
The flux-values for the rate of delivery of drugs were determined from Fick's law of diffusion.

A short description of data set [4]: Stability in aqueous solutions (sodium phosphate buffer, 37° C.). The format is physicochemical. To be noted: for Half-life in aqueous solution: Table 3; for half-life: buffer, read-out: Half-life in aqueous solution (converted). Here is the method: […] The solutions of prodrugs were prepared by adding 10 μL of stock solution (10 mg/mL in DMSO) to the preheated buffer. The solutions were stirred at a constant temperature of 37° C. At appropriate intervals, 75 μL of samples were mixed with 75 μL of MeOH and analyzed for remaining prodrug by HPLC.
The pseudo-first-order rate constants (kobs) and half-lives (t1/2) for the degradation of the prodrugs were determined from the linear slopes of the plots by taking the logarithm of the remaining prodrug over time. Equations: kobs=slope/−2.303 and t1/2=ln2/kobs.

The nature of data set [5]: Stability in 80% human plasma (serum). The format is in vitro ADME. To be noted: Table 3; 80% human serum (pH 7.4) at 37° C. The procedure:
The rates of the degradation of the prodrugs were determined in 80% human serum (pH 7.4) at 37° C. as an indication of the susceptibility of prodrugs to undergo bioconversion after reaching the circulation. The reactions were initiated by adding the first 10 μL of the prodrug stock solution (10 mg/mL in DMSO) to 200 μL preheated sodium phosphate buffer solution (50 mM, pH 7.4, ionic strength 0.5), and then adding 800 μL preheated human serum. The solutions were stirred at a constant temperature of 37° C. At appropriate intervals, 50 μL of samples were mixed with 150 μL of ice-cold MeOH. After immediate mixing and centrifugation (5 min at 14.000 rpm), the resulting clear supernatant was analyzed for the remaining prodrug by HPLC.

For data set [6], the system named is reconstructed human oral buccal epithelium cells (SkinEthic HOE, TR146 cells). Nature of the data set: In vitro buccal permeability (SkinEthic human oral epithelium). The data set is classed as in vitro ADME. Here is the method: The in vitro permeability studies were carried out in commercial reconstructed human oral buccal epithelium cells (SkinEthic™ human oral epithelium). The SkinEthic™ HOE model is composed of TR146 cells (derived from a squamous cell carcinoma of the buccal mucosa) cultivated on an inert polycarbonate filter at the air-liquid interface in a chemically defined medium. This model forms an epithelial tissue devoid of stratum corneum, resembling histologically to the mucosa of the oral cavity.
Upon receiving the cells, each insert (0.5 cm^2 or 0.33 cm^2) was placed in a plate containing 800 μL fresh medium at room temperature. The culture dishes were placed in the incubator at 37° C., 5% CO2, and saturated humidity overnight. Next day, the inserts were placed in a plate containing 800 μL 15% HP-β-cyclodextrin in H2O. The prodrugs were dissolved in 100% EtOH (5% (V/V) final conc.), and then sodium phosphate buffer solution (50 mM, pH 6.8, isotonic, 37° C.) was added (95% (V/V) final conc.). 400 μL of the prodrugs were applied as suspensions (ca. 2 mg/ml). The plates were stirred gently at 37° C. At appropriate intervals, the receptor compartment was sampled (100 μL) and replenished with fresh […] solution each time. The samples were mixed with 100 μL of MeOH, and analyzed for drug (both the parent cannabinoid and the prodrug) by HPLC-MS.
The buccal flux-values for the rate of delivery of drugs were determined from Fick's law of diffusion.

The mark [7] stands for this setting: both sexes, human, microsomes, 37° C., NADPH, read-out: Half-life in human liver microsomes (single determinations) (converted).
Where [8] appears, read: both sexes, human, microsomes, average of determinations, read-out: Half-life in human liver microsomes (avg.) (converted).
Setting [9] is: vehicle solvent mix (1:1:1 prop gly:water:EtOH/6% Brij 98).

For the molecule `C=C(C)[C@@H]1CCC(C)=C[C@H]1c1c(O)cc(CCCCC)cc1O` [CBD, Cannabidiol], in data set [1] (Table 3, 37° C., NADPH), the “Half-life in human liver microsomes (single determinations)” value was 0.39 h. In addition, the half-life at 15 µg/mL in data set [1] (setting [7]) is 36 min; in data set [1] (setting [8]), 30 min. For the same molecule, the microsomal CLint at 15 µg/mL in data set [1] (both sexes, human, microsomes, pH 7.4, Table 3, CLint = k/P, protein 1 mg, read-out: Intrinsic clearance CLint) came out at 23.1 µL/min/mg. Further, in data set [2] (50 mM phosphate buffer, pH 6.8, 10% EtOH, suspension filtered (Millex 0.45 μm)), the “Solubility after filtration (HPLC)” value was “no detectable”. The solubility in data set [2] (15% HP-beta-CD:85% H2O, ca. 1 mg in ca. 1 ml) is 700 µg/mL (≈ 2230 µM); in data set [2] (aqueous with cosolvent or surfactant or cyclodextrin, thermodynamic from solid, 4% BSA:95% H2O, ca. 1 mg in ca. 1 ml, read-out: Solubility), 70 µg/mL (≈ 223 µM); in data set [2] (aqueous with cosolvent or surfactant or cyclodextrin, thermodynamic from solid, 5% HP-beta-CD:0.5% HPMC:84.5% H2O, ca. 1 mg in ca. 1 ml, read-out: Solubility) it was 160 µg/mL (≈ 509 µM); in data set [2] (aqueous with cosolvent or surfactant or cyclodextrin, thermodynamic from solid, 30% Solutol HS 15:10% EtOH:60% H2O, ca. 1 mg in ca. 1 ml, read-out: Solubility) it was 960 µg/mL (≈ 3050 µM); in data set [2] (aqueous with cosolvent or surfactant or cyclodextrin, thermodynamic from solid, 50% EtOH:50% H2O, ca. 1 mg in ca. 1 ml, read-out: Solubility) it was roughly 1000 µg/mL (≈ 3180 µM); in data set [2] (organic solvent or mixture, thermodynamic from solid, 90% Propylene glycol:10% H2O, ca. 1 mg in ca. 1 ml, read-out: Solubility) it was 870 µg/mL (≈ 2770 µM). In data set [2] (phosphate buffer with 10% (v/v) ethanol, aqueous with cosolvent or surfactant or cyclodextrin, thermodynamic from solid, 50 mM phosphate buffer, pH 6.8, 10% (v/v) EtOH, suspension centrifuged, read-out: Solubility), the solubility lay within 15 to 110 µg/mL (≈ 47.7 to 350 µM). The figures for the “Skin permeation, applied compound (parent or intact prodrug)” value in data set [3] (vehicle mineral oil) and in data set [3] (setting [9]) were 0.0233 ± 0.007 nmol/cm^2/h and 1.16 ± 0.12 nmol/cm^2/h, respectively.
As for `C=C(C)[C@@H]1CCC(C)=C[C@H]1c1c(O)cc(CCCCC)cc1OC(=O)NCCN(C)C` [CBDp27, (1′R,2′R)-6-hydroxy-5′-methyl-4-pentyl-2′-(prop-1-en-2-yl)-1′,2′,3′,4′-tetrahydro-[1,1′-biphenyl]-2-yl (2-(dimethylamino)ethyl)carbamate], the “Half-life in aqueous solution” value in data set [4] (aqueous buffer pH 6.8, 37° C.) is 10.2 min; in data set [4] (pH 3), “(pH 3 = stable,”; in data set [4] (pH 4) it was “pH 4 = stable,”; in data set [4] (pH 5) it was “pH 5 = stable,”. Besides, the half-life is 8.4 min in data set [4] (pH 6.8, Table 3, aqueous buffer pH 6.8, 37° C.); 52.2 min in data set [4] (pH 7.4, Table 3, pH 7.4); 65.4 min in data set [4] (pH 8, Table 3, pH 8); 98.4 min in data set [4] (pH 9, Table 3, pH 9). Besides, the Half-life in serum result in data set [5] is “stable”. Further, the “Half-life in human liver microsomes (single determinations)” value in data set [1] (Table 3, 37° C., NADPH) is on record as 3.13; 3.13 h. The half-life at 15 µg/mL in data set [1] (setting [7]) and in data set [1] (setting [8]) was 188 min throughout. For the same molecule, the “Buccal permeation compared with parent cannabinoid (in words)” value in data set [6] (5% ethanol suspension) was “better than that of CBD; also recorded: superior when compared to CBD and other prodrugs”. In addition, the “Species making up the buccal flux (parent vs intact prodrug)” value in data set [6] (Table 2, remark in flux cell) is listed as “CBD + prodrug”. For the same molecule, the “Skin permeation of prodrug relative to parent cannabinoid” value in data set [3] (mineral oil) was roughly 140 fold; in data set [3] (solvent mix) it was roughly 40 fold. In addition, the “Skin permeation, applied compound (parent or intact prodrug)” value in data set [3] (vehicle mineral oil) was determined as 3.28 ± 0.15 nmol/cm^2/h; in data set [3] (setting [9]) it was 47.42 ± 5.23 nmol/cm^2/h.

In general, half-life refers to the time in which the quantity being followed falls by half. The term solubility denotes the dissolved amount per volume that the medium holds.
